Biological target: MALT1 (Homo sapiens (Human), UniProt Q9UDY8)
Experiment: MALT1 enzymatic activity inhibition (fluorescence, Ac-LRSR-AMC substrate)
Format: biochemical
Details: recombinant MALT1 1.5 ng/μl, Ac-LRSR-AMC 1 μM
Protocol: Compound activity was determined using recombinant MALT1 protein (Creative Biomart, Cat #MALT1-28H) and Ac-LRSR-AMC Substrate in an in vitro enzymatic reaction. The enzymatic assay used to determine activity was a Fluorescence assay using a Microplate Reader ClarioStar Plus. The enzymatic reaction was carried out in 1× Assay Buffer (50 mM HEPES pH 7.2-7.4, 100 mM NaCl, 900 mM Sodium citrate, 10 mM DTT). The compounds were dispensed on a 384-well Diamond Well Plate (Axygen, Cat #P-384-120SQ-C—S) using the Biomek FX liquid handling system at 100× solutions of compounds in DMSO. 2.5×MALT1 mix (final concentration 1.5 ng/μl of MALT1) was prepared in 1× Assay Buffer and 8 μl of mixture per well were added into 384w white Reaction Plates with NBS (Corning, Cat #4513). 8 μl of 1× Assay Buffer were used for negative control. Plates were centrifuged for 1 min at 200 g. Next, the compounds were added to Reaction plates using Biomek station via following steps: 1 μl of 100× compounds (in DMSO) was mixed thoroughly with 19 μl of 1× Assay Buffer, then 4 μl of this mixture were added to Reaction plates with 8 μl of MALT1 mix. Plates were centrifuged for 1 min at 200 g and incubated for 10 minutes at rt. Next, 2.5× Ac-LRSR-AMC mix (final concentration 1 μM of Ac-LRSR-AMC) was prepared in 1× Assay Buffer and 8 μl of mixture per well were added to Reaction Plates using Biomek station. Plates were centrifuged for 1 min at 200 g, then the fluorescence was measured immediately using Microplate Reader. Plates were incubated for 30 minutes at 37° C., then for 30 minutes at rt. The fluorescence was measured after the whole incubation using Microplate Reader. The reaction signal was calculated as the subtraction of the first data set values from the second. The % inhibition was then used to calculate the IC50 values. The results of this assay are shown in the Table A. The values of EC50 shown as a letters A-E, where: A≤0.2 μM; 0.2 μM<B≤0.5 μM; 0.5 μM<C≤1 μM; 1<D≤5 μM; E >5.

MALT1, sequence (Q9UDY8 whole entry): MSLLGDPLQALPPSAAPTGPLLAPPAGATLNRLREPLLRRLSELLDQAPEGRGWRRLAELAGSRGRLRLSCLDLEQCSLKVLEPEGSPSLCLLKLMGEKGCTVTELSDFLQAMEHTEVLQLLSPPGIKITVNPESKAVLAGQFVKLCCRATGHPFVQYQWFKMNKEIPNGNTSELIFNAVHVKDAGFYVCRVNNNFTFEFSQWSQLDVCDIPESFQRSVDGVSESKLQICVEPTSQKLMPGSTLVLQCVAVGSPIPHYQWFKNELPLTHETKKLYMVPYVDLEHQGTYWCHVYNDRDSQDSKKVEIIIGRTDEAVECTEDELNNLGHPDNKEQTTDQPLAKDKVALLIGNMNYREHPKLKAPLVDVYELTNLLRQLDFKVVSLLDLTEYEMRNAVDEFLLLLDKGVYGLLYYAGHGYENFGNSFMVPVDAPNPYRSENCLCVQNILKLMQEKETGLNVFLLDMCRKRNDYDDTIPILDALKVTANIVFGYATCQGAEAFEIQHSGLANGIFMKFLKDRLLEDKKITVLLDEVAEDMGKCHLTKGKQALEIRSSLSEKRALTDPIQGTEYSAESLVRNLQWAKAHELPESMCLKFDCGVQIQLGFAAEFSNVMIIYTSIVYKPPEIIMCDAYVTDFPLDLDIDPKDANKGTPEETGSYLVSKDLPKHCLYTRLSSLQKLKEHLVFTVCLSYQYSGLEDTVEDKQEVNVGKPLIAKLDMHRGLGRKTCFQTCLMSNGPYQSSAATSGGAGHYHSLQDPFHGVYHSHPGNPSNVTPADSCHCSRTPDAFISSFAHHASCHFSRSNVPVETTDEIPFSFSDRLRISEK

Compound | EC50
Cc1cc(NC(=O)Nc2cnc3ccnn3c2C2CCCO2)cnc1NCCOCCOCCOCCC(=O)N1CCN(c2ccc3c(c2)CN(C2CCC(=O)NC2=O)C3=O)CC1 (stereo not drawn) [Compound 29, 1-[6-[2-[2-[2-[3-[4-[2-(2,6-dioxo-3-piperidyl)-1-oxo-isoindolin-5-yl]piperazin-1-yl]-3-oxo-propoxy]ethoxy]ethoxy]ethylamino]-5-methyl-3-pyridyl]-3-(7-tetrahydrofuran-2-ylpyrazolo[1,5-a]pyrimidin-6-yl)urea] | > 5 µM
Cc1cc(NC(=O)Nc2cnc3ccnn3c2C2CCCO2)cnc1N1CCN(C(=O)CCOCCOCCN2CCN(c3ccc4c(c3)CN(C3CCC(=O)NC3=O)C4=O)CC2)CC1 (stereo not drawn) [Compound 31, 1-[6-[4-[3-[2-[2-[4-[2-(2,6-dioxo-3-piperidyl)-1-oxo-isoindolin-5-yl]piperazin-1-yl]ethoxy]ethoxy]propanoyl]piperazin-1-yl]-5-methyl-3-pyridyl]-3-(7-tetrahydrofuran-2-ylpyrazolo[1,5-a]pyrimidin-6-yl)urea] | > 5 µM
Cc1cc(NC(=O)Nc2cnc3ccnn3c2C2CCCO2)cnc1-n1cc(C(=O)NCCOCCOCCC(=O)N2CCN(c3ccc4c(c3)CN(C3CCC(=O)NC3=O)C4=O)CC2)cn1 (stereo not drawn) [Compound 33, N-[2-[2-[3-[4-[2-(2,6-dioxo-3-piperidyl)-1-oxo-isoindolin-5-yl]piperazin-1-yl]-3-oxo-propoxy]ethoxy]ethyl]-1-[3-methyl-5-[(7-tetrahydrofuran-2-ylpyrazolo[1,5-a]pyrimidin-6-yl)carbamoylamino]-2-pyridyl]pyrazole-4-carboxamide] | 1 to 5 µM
Cc1cc(NC(=O)Nc2cnc3ccnn3c2C2CCCO2)cnc1N1CCN(C(=O)CCOCCN2CCN(c3ccc4c(c3)CN(C3CCC(=O)NC3=O)C4=O)CC2)CC1 (stereo not drawn) [Compound 35, 1-[6-[4-[3-[2-[4-[2-(2,6-dioxo-3-piperidyl)-1-oxo-isoindolin-5-yl]piperazin-1-yl]ethoxy]propanoyl]piperazin-1-yl]-5-methyl-3-pyridyl]-3-(7-tetrahydrofuran-2-ylpyrazolo[1,5-a]pyrimidin-6-yl)urea] | > 5 µM
O=C(CCOCCN1CCN(c2ccc3c(c2)CN(C2CCC(=O)NC2=O)C3=O)CC1)NCCOc1ncc(Cl)cc1NC(=O)Nc1cnc2ccnn2c1C1CCCCC1 (stereo not drawn) [Compound 44] | 1 to 5 µM
O=C(CCOCCN1CCN(c2ccc3c(c2)CN(C2CCC(=O)NC2=O)C3=O)CC1)NCCNC(=O)C1CCCN1C(=O)Nc1cnc2ccnn2c1C1CCCC1 (stereo not drawn) [Compound 45, N1-(7-cyclopentylpyrazolo[1,5-a]pyrimidin-6-yl)-N2-[2-[3-[2-[4-[2-(2,6-dioxo-3-piperidyl)-1-oxo-isoindolin-5-yl]piperazin-1-yl]ethoxy]propanoylamino]ethyl]pyrrolidine-1,2-dicarboxamide] | > 5 µM
O=C(CCOCCN1CCN(c2ccc3c(c2)CN(C2CCC(=O)NC2=O)C3=O)CC1)NCCNC(=O)[C@@H]1C[C@@H](O)CN1C(=O)Nc1cnc2ccnn2c1C1CCCC1 (stereo partly drawn) [Compound 46, (2S,4R)-N1-(7-cyclopentylpyrazolo[1,5-a]pyrimidin-6-yl)-N2-[2-[3-[2-[4-[2-(2,6-dioxo-3-piperidyl)-1-oxo-isoindolin-5-yl]piperazin-1-yl]ethoxy]propanoylamino]ethyl]-4-hydroxy-pyrrolidine-1,2-dicarboxamide] | > 5 µM
O=C(CCOCCOCCN1CCN(c2ccc3c(c2)CN(C2CCC(=O)NC2=O)C3=O)CC1)NCCNC(=O)[C@@H]1C[C@@H](O)CN1C(=O)Nc1cnc2ccnn2c1C1CCCC1 (stereo partly drawn) [Compound 47, (2S,4R)-N1-(7-cyclopentylpyrazolo[1,5-a]pyrimidin-6-yl)-N2-[2-[3-[2-[2-[4-[2-(2,6-dioxo-3-piperidyl)-1-oxo-isoindolin-5-yl]piperazin-1-yl]ethoxy]ethoxy]propanoylamino]ethyl]-4-hydroxy-pyrrolidine-1,2-dicarboxamide] | > 5 µM
O=C(CCOCCOCCN1CCN(c2ccc3c(c2)CN(C2CCC(=O)NC2=O)C3=O)CC1)NCCNC(=O)C1CCCN1C(=O)Nc1cnc2ccnn2c1C1CCCC1 (stereo not drawn) [Compound 48, N1-(7-cyclopentylpyrazolo[1,5-a]pyrimidin-6-yl)-N2-[2-[3-[2-[2-[4-[2-(2,6-dioxo-3-piperidyl)-1-oxo-isoindolin-5-yl]piperazin-1-yl]ethoxy]ethoxy]propanoylamino]ethyl]pyrrolidine-1,2-dicarboxamide] | > 5 µM
O=C(CCOCCOCCN1CCN(c2ccc3c(c2)CN(C2CCC(=O)NC2=O)C3=O)CC1)NCCOc1ccc(Cl)cc1NC(=O)Nc1cnc2ccnn2c1C1CCCC1 (stereo not drawn) [Compound 49, N-[2-[4-chloro-2-[(7-cyclopentylpyrazolo[1,5-a]pyrimidin-6-yl)carbamoylamino]phenoxy]ethyl]-3-[2-[2-[4-[2-(2,6-dioxo-3-piperidyl)-1-oxo-isoindolin-5-yl]piperazin-1-yl]ethoxy]ethoxy]propanamide] | 1 to 5 µM
O=C(CCOCCN1CCN(c2ccc3c(c2)CN(C2CCC(=O)NC2=O)C3=O)CC1)NCCOc1ncc(Cl)cc1NC(=O)Nc1cn2ccnc2nc1C1CCCCC1 (stereo not drawn) [Compound 50, N-[2-[[5-chloro-3-[(7-cyclohexylimidazo[1,2-a]pyrimidin-6-yl)carbamoylamino]-2-pyridyl]oxy]ethyl]-3-[2-[4-[2-(2,6-dioxo-3-piperidyl)-1-oxo-isoindolin-5-yl]piperazin-1-yl]ethoxy]propanamide] | 1 to 5 µM

Further lines, results first:

EC50 | Compound
1 to 5 µM | O=C(CCOCCOCCN1CCN(c2ccc3c(c2)CN(C2CCC(=O)NC2=O)C3=O)CC1)NCCOc1ncc(Cl)cc1NC(=O)Nc1cnc2ccnn2c1C1CCCO1 (stereo not drawn) [Compound 32, N-[2-[[5-chloro-3-[(7-tetrahydrofuran-2-ylpyrazolo[1,5-a]pyrimidin-6-yl)carbamoylamino]-2-pyridyl]oxy]ethyl]-3-[2-[2-[4-[2-(2,6-dioxo-3-piperidyl)-1-oxo-isoindolin-5-yl]piperazin-1-yl]ethoxy]ethoxy]propanamide]
0.5 to 1 µM | O=C(CCOCCN1CCN(c2ccc3c(c2)CN(C2CCC(=O)NC2=O)C3=O)CC1)NCCOc1ncc(Cl)cc1NC(=O)Nc1cnc2ccnn2c1C1CCCO1 (stereo not drawn) [Compound 36, N-[2-[[5-chloro-3-[(7-tetrahydrofuran-2-ylpyrazolo[1,5-a]pyrimidin-6-yl)carbamoylamino]-2-pyridyl]oxy]ethyl]-3-[2-[4-[2-(2,6-dioxo-3-piperidyl)-1-oxo-isoindolin-5-yl]piperazin-1-yl]ethoxy]propanamide]
0.5 to 1 µM | O=C(CCOCCN1CCN(c2ccc3c(c2)CN(C2CCC(=O)NC2=O)C3=O)CC1)NCCOc1ncc(Cl)cc1NC(=O)Nc1cnc2ccnn2c1C1CCOC1 (stereo not drawn) [Compound 39, N-[2-[[5-chloro-3-[(7-tetrahydrofuran-3-ylpyrazolo[1,5-a]pyrimidin-6-yl)carbamoylamino]-2-pyridyl]oxy]ethyl]-3-[2-[4-[2-(2,6-dioxo-3-piperidyl)-1-oxo-isoindolin-5-yl]piperazin-1-yl]ethoxy]propanamide]
0.5 to 1 µM | O=C(CCOCCOCCN1CCN(c2ccc3c(c2)CN(C2CCC(=O)NC2=O)C3=O)CC1)NCCOc1ncc(Cl)cc1NC(=O)Nc1cnc2ccnn2c1C1CCOC1 (stereo not drawn) [Compound 40, N-[2-[[5-chloro-3-[(7-tetrahydrofuran-3-ylpyrazolo[1,5-a]pyrimidin-6-yl)carbamoylamino]-2-pyridyl]oxy]ethyl]-3-[2-[2-[4-[2-(2,6-dioxo-3-piperidyl)-1-oxo-isoindolin-5-yl]piperazin-1-yl]ethoxy]ethoxy]propanamide]
0.5 to 1 µM | O=C(CCOCCOCCN1CCN(c2ccc3c(c2)CN(C2CCC(=O)NC2=O)C3=O)CC1)NCCOc1ncc(Cl)cc1NC(=O)Nc1cnc2ccnn2c1C1CCOCC1 (stereo not drawn) [Compound 41, N-[2-[[5-chloro-3-[(7-tetrahydropyran-4-ylpyrazolo[1,5-a]pyrimidin-6-yl)carbamoylamino]-2-pyridyl]oxy]ethyl]-3-[2-[2-[4-[2-(2,6-dioxo-3-piperidyl)-1-oxo-isoindolin-5-yl]piperazin-1-yl]ethoxy]ethoxy]propanamide]
0.5 to 1 µM | O=C(CCOCCN1CCN(c2ccc3c(c2)CN(C2CCC(=O)NC2=O)C3=O)CC1)NCCOc1ncc(Cl)cc1NC(=O)Nc1cnc2ccnn2c1C1CCOCC1 (stereo not drawn) [Compound 42, N-[2-[[5-chloro-3-[(7-tetrahydropyran-4-ylpyrazolo[1,5-a]pyrimidin-6-yl)carbamoylamino]-2-pyridyl]oxy]ethyl]-3-[2-[4-[2-(2,6-dioxo-3-piperidyl)-1-oxo-isoindolin-5-yl]piperazin-1-yl]ethoxy]propanamide]
1 to 5 µM | O=C(CCOCCN1CCN(c2ccc3c(c2)CN(C2CCC(=O)NC2=O)C3=O)CC1)NCCOc1ccc(Cl)cc1NC(=O)Nc1cnc2ccnn2c1C1CCCC1 (stereo not drawn) [Compound 43, N-[2-[4-chloro-2-[(7-cyclopentylpyrazolo[1,5-a]pyrimidin-6-yl)carbamoylamino]phenoxy]ethyl]-3-[2-[4-[2-(2,6-dioxo-3-piperidyl)-1-oxo-isoindolin-5-yl]piperazin-1-yl]ethoxy]propanamide]

Reference: US20250163066A1, “PROTACs of MALT1” (TEGID THERAPEUTICS, INC., priority 2022, published 2025)
